Two compounds from patent US11246308B2, “Ice-free preservation of large volume tissue samples for viable, functional tissue banking” (TISSUE TESTING TECHNOLOGIES LLC, priority 2016, dated 2022) can be followed below.

The nature of series [1]: ice formation in VS55 supplemented with sugars stored at −80 C (FIG. 7). It counts as physicochemical. The conditions noted are these: for sugar concentrations in VS55 that demonstrated ice (white) formation: 24 hours at −80° C. How it is done: In this experiment 30 mL samples of VS55 with increasing concentrations of sugars were placed in 50 mL plastic tubes and stored in a −80 C mechanical storage freezer for 7 days. The tubes were checked daily for ice formation. […] After one day 0.4 to 0.6M trehalose and 0.5-0.6M sucrose were free of ice, while after 7 days 0.5-0.6M trehalose and 0.6M sucrose groups were free of ice. Lower concentrations of these sugars may still be used for ice-free vitrification but more rapid cooling and warming will be needed because the risk of ice formation will be greater and nanowarming rather than convection warming may be needed. Specifically, FIG. 7 is photograph illustrating the ice formation in VS55 supplemented with sugars at −80° C.: Top left: VS55 with 0-0.6M sucrose at 24 hours; Top right: VS55 with 0-0.6M trehalose at 24 hours. […] Higher concentrations were clear without ice. Bottom left: VS55 with 0-0.6M sucrose at 7 days; and Bottom right: VS55 with 0-0.6M trehalose at 7 days. After a week at −80° C. the highest concentrations of sugars are still free of ice.

Series [2] deals with heart valve tissues (pulmonary artery, leaflet and cardiac muscle). The experiment in a line: alamarBlue metabolic activity of heart valve tissues vitrified in 4 mL of solution (FIG. 1). It counts as cell-based. The conditions noted are these: for leaflet viability: 4 mL; for leaflet viability / tissue viability: p<0.05; for post-vitrification viability: 0.6M sugar in DP6, VS49 and VS55; for tissue viability: trehalose and sucrose supplementation of vitrification formulations (VS49, DP6, VS55), compared with no additive controls, N=6. How it is done: (§1) In the following ice-free cryopreservation formulation supplementation experiments, disaccharides (trehalose and sucrose) are added to various vitrification formulations (VS49, DP6, and VS55) in the amounts shown in FIG. 1 and compared to a solution (without trehalose and/or sucrose) to access the effectiveness at inhibiting ice formation in various tissues.
Data shown in % of control VS55 results performed with the final cryoprotectant concentration added at 4° C., N=6, *p<0.05 by ANOVA or #T-test compared with no additive controls.
In this experiment, addition of either 600 mM trehalose or sucrose to VS49, DP6 and VS55 formulations was compared. The tissues were vitrified in 4 mL of solution. Trehalose supplementation increased leaflet viability in VS49 and VS55. Sucrose supplementation increased leaflet viability in all three formulations. […] This led to plans to test DP6 with sugars more thoroughly in later experiments. Repetitive experiments were performed using sucrose supplemented VS55 and obtained outcomes similar to those for supplemented VS55 shown here.
Bonafide excess heart valves or blood vessels were obtained from animals employed in other IACUC approved research studies or from a food processing plant post-mortem. The tissues were dissected, rinsed and placed in sterile cups with ice-cold tissue culture medium containing antibiotics overnight and then allocated for in vitro studies. The heart valve tissues in FIG. 1 each consisted of a piece of tissue consisting of pulmonary artery, leaflet and cardiac muscle. They were separated and individually assayed for viability using an assay that assesses metabolic activity that is described below.
(§2) Tissues were gradually infiltrated with VS55 consisting of 3.10 M DMSO, 3.10M formamide, and 2.21 M propylene glycol in Euro-Collins solution at 4° C. using methods previously described for blood vessel vitrification, a dilution of VS55 to VS49 or DP6 consisting of 3 M DMSO, 3 M propylene glycol. Precooled dilute vitrification solutions (4° C.) are added in five sequential 15-min steps of increasing concentration on ice. The last cryoprotectant concentration with mNPs was added in a final sixth addition step in either precooled −10° C. or 4° C. full strength vitrification solution and kept in a −10° C. bath for 15 minutes or at 4° C. on ice in plastic tubes. The samples were then cooled in two steps, first rapid cooling to −100° C. by placing in a precooled 2-methylbutane bath at −135° C. and then by transfer to vapor phase nitrogen storage for slower cooling to below −135° C. Finally, the samples were stored below −130° C. in vapor phase nitrogen for at least 24 h before testing.
(§3) Warming was performed by either convection warming or nanowarming. Convection warming is a two-stage process including slow warming to −100° C. and then as rapid as possible warming to melting. The slow warming rate is created by taking the sample to the top of the −135° C. freezer and the […] warming rate is generated by placing the plastic container in the mixture of 30% DMSO/H2O at room temperature. After rewarming, the vitrification solution was removed in a stepwise manner on ice to keep the tissues cold and minimize cytotoxicity due to the presence of residual cryoprotectants.
Metabolic Activity—An alamarBlue™ assay will be used to evaluate the metabolic activity of control and treated tissue samples. Tissues were incubated in 2 ml of DMEM+10% FBS culture medium for one hour to equilibrate followed by the addition of 20% AlamarBlue under standard cell culture conditions for 3 hours. AlamarBlue is a non-toxic fluorometric indicator based on detection of metabolic activity. Fluorescence was measured at an excitation wavelength of 544 nm and an emission wavelength of 590 nm. […] Control and experimental tissues were dried at the end of each experiment, weighed, and results expressed as relative fluorescence units (RFU)/mg tissue dry weight.
Background: Alamar Blue is a resazurin reagent that responds to reducing activity.

The nature of series [3]: visible ice formation during cooling and rewarming, 1st set of experiments. It counts as physicochemical. The following applies: for visible ice formation: 0.6M sugar in both DP6 and VS49 formulations; for ice formation during cooling and rewarming: in the presence of the sugar, with nanowarming. How it is done: as §1, §2, §3

Regarding `OC[C@H]1O[C@@](CO)(O[C@H]2O[C@H](CO)[C@@H](O)[C@H](O)[C@H]2O)[C@@H](O)[C@@H]1O` [sucrose], in series [1], the “sugar concentrations in VS55 that demonstrated ice (white) formation” value fell in the range of 0 to 0.4 M. In addition, the “sugar concentrations in VS55 free of ice” value in series [1] (after 7 days at −80 C, 30 mL samples) is given as 0.6 M. Further, the leaflet viability result in series [2] (600 mM sucrose added to all three formulations (VS49, DP6, VS55)) was “increased”. In series [2], the post-vitrification viability entry is given as “increases” and the tissue viability entry is listed as “significant increases”. Besides, in series [3], the visible ice formation entry was “prevents visible ice formation”; the “ice formation during cooling and rewarming” value is “no ice formation”.
On to `OC[C@H]1O[C@H](O[C@H]2O[C@H](CO)[C@@H](O)[C@H](O)[C@H]2O)[C@H](O)[C@@H](O)[C@@H]1O` [trehalose], for which the “sugar concentrations in VS55 that demonstrated ice (white) formation” value in series [1] lay within 0 to 0.6 M. Also, in series [2], the post-vitrification viability result is reported as “increases” and the tissue viability result is “significant increases”. Moreover, in series [2] (600 mM trehalose added to VS49 and VS55), the leaflet viability entry is recorded as “increased”. Further, in series [3], the visible ice formation result is “prevents visible ice formation”; the “ice formation during cooling and rewarming” value is on record as “no ice formation”.
